# Measurements as given in the NIST ThermoML archive (doi:10.1021/acs.jced.5b00330).
# Numbers after ± are expanded uncertainties.
# Tests used:
# [1] = Solid-liquid equilibrium temperature; settings: Crystal, High pressure microscope
# [2] = Crystal
Solid-liquid equilibrium temperature ([1]; 100 kPa) [K],Solid-liquid equilibrium temperature ([1]; 20000 kPa) [K],Solid-liquid equilibrium temperature ([1]; 40000 kPa) [K],Solid-liquid equilibrium temperature ([1]; 60000 kPa) [K],Solid-liquid equilibrium temperature ([1]; 80000 kPa) [K],Normal melting temperature ([2]; DTA) [°C],Normal melting temperature ([2]; High pressure microscope) [°C],Normal melting temperature ([2]; High Pressure microscope) [°C],SMILES
310.6 ± 0.4,314.2 ± 0.5,319 ± 0.5,323.8 ± 0.5,327.8 ± 0.5,37.8 ± 1.3,37.5 ± 1.4,,CCCCCCCCCCCCCCO [1-tetradecanol]
330.9 ± 0.4,335.8 ± 0.5,340.9 ± 0.5,345.9 ± 0.5,350.6 ± 0.5,58.2 ± 1.3,,57.8 ± 1.4,CCCCCCCCCCCCCCCCCCO [1-octadecanol]
322.2 ± 0.4,327.3 ± 0.5,332.4 ± 0.5,337.6 ± 0.5,342.7 ± 0.5,49.7 ± 1.3,49.1 ± 1.4,,CCCCCCCCCCCCCCCCO [1-hexadecanol]
296.9 ± 0.4,300.5 ± 0.5,304.6 ± 0.5,308.4 ± 0.5,311.7 ± 0.5,24.7 ± 1.3,,23.8 ± 1.4,CCCCCCCCCCCCO [dodecan-1-ol]
